Converted amounts (≈) assume the structure as drawn.
Columns and labels:
TK^- = experiment: plaque formation test (antiviral activity, CPE as index) on Vero cells; format: cell-based, TK deficiency herpes simplex virus type 1 (strain B 2006); conditions: Human alphaherpesvirus 1, Vero, read-out: EC50 (µg/mℓ) (average ± standard deviation)
Excerpt: (§1) In order to examine antiviral activity, herpes simplex virus type 1 (strain 7401 H) (referred sometimes to as "HSV-1" hereinafter), TK deficiency herpes simplex virus type 1 (strain B 2006) (referred sometimes to as "TK^-" hereinafter), phosphono acetic acid (referred to as "PAA" hereinafter) resistant herpes simplex virus type 1 (PAA resistant strain derived from 7401 H) (referred sometimes to as "AP^r1" hereinafter) and herpes simplex virus type 2 (strain Ito 1262) (referred sometimes to as "HSV-2" hereinafter) were used as viruses. […]
(§2) That is, the above-described virus solution was diluted to a concentration of 100 plaques/0.2 mℓ, the thus diluted virus solution (0.2 mℓ) was inoculated into Vero cells which have been cultured into monolayer in a plastic dish of 60 mm in diameter, and the mixture was incubated at 37°C for 1 hour to effect adsorption of viruses to the Vero cells. After the adsorption, 2% fetal bovine serum-added MEM medium (5 mℓ) containing each drug solution to be measured having varied drug concentration and 0.8% methyl cellulose was overlaid on the just described virus-adsorbed monolayer Vero cells which were subsequently cultured at 37°C for 2 to 5 days to effect plaque formation. […] The number of plaques was counted under a stereoscopic microscope. […]

HSV-2 = experiment: as above; format: cell-based, herpes simplex virus type 2 (strain Ito 1262); conditions: Human alphaherpesvirus 2, Vero, 50% plaque formation inhibition concentration; HSV-2 on Vero cells; three experiments; read-out: EC50 (µg/mℓ) (average ± standard deviation)
Excerpt: as §1, §2

[1] = system: HSV-1, AP^r1, TK^-, HSV-2; experiment: viral growth inhibition activity, plaque forming unit (PFU/mℓ) as index, 24 hours culture; format: cell-based, herpes simplex virus; conditions: 5, 10 or 20 µg/mℓ compared with the control (water); also drug-resistant strains AP^r and TK^-; Table 2 is an image
Experimental: Next, the viral growth inhibition activity was measured in the following manner making use of a plaque forming unit (PFU/mℓ) as an index. That is, each of the above-described viral strains was adsorbed to Vero cells which have been cultured into monolayer in a plastic dish of 60 mm in diameter, and the resulting cells were supplemented with 2% fetal bovine serum-added MEM medium (3 mℓ) and 3-oxo-olean-18-en-28-oic acid solution (1 mℓ) having varied concentration and cultured at 37°C for 24 hours. After 24 hours, the thus infected cells were subjected to three times of freezing-thawing and then to centrifugation (3,000 rpm, 15 minutes), and the resulting supernatant fluid was used as a virus solution to count the number of infectious viruses by the above-described plaque formation test and to calculate the plaque forming unit (PFU/mℓ) based on the counts.

[2] = toxicity test in non-infected mice; format: in vivo
Experimental: Next, in order to examine toxicity of moronic acid, a toxicity test was carried out by administering control (water only) or 1 mg, 5 mg or 10 mg per kg mouse body weight of 3-oxo-olean-18-en-28-oic acid (moronic acid) to mice which have not been infected with viruses. Mice having a weight of 18 to 21 g/animal just before the commencement of the test were used in five animals per group. None of the mice died before completion of the test. 3-Oxo-olean-18-en-28-oic acid (moronic acid) was orally administered every day and three times a day.

HSV-1 = experiment: viral DNA synthesis, slot-blot hybridization with radiation-labeled probe in Vero cells; format: cell-based, herpes simplex virus type 1 (strain 7401 H); conditions: HSV-1 in Vero cells; 0, 5, 10 or 20 µg/mℓ; even at 20 µg/mℓ; Fig. 2
Experimental: Finally, in order to examine effects of moronic acid on the viral synthesis ability, the amount of virus particles in cultured cells was measured by the slot-blot hybridization described in J. Traditional Med., 12, 187 - 194 (1995). Using a radiation-labeled probe, viral DNA synthesis ability of herpesvirus strains HSV-1 and AP^r1 was measured just after adsorption of the viruses to animal cells (Vero cells) or when concentration of 3-oxo-olean-18-en-28-oic acid (moronic acid) was changed (0, 5, 10 or 20 µg/mℓ), with the results shown as a chart in Fig. 2 (photograph).
In Fig. 2, rough amounts of each herpesvirus are shown by the strength of black parts. For the sake of comparison, DNA copy number of a virus TK^- is shown on the right-side column as a reference strength.

Vero cells = experiment: cytotoxicity (observation, no method given); conditions: at the concentration by which it showed anti-herpesvirus activity
[3] = Exp. 1, 1 mg/kg orally every day, three times a day, non-infected mice, five per group

CC1(C)C=C2[C@H]3CC[C@@H]4[C@@]5(C)CCC(=O)C(C)(C)[C@@H]5CC[C@@]4(C)[C@]3(C)CC[C@@]2(C(=O)O)CC1 [Moronic acid, 3-oxo-olean-18-en-28-oic acid]
EC50 (TK^-): 2 ± 0.4 µg/mL (≈ 4.4 µM)
EC50 (HSV-2): 5.8 ± 0.5 µg/mL (≈ 12.8 µM)
ratio of plaques formed by each viral strain [1]: decreases
Death rate ([2]; Exp. 1, 1 mg/kg orally every day, three times a day, non-infected mice): 0/5
(Average body weight ± standard deviation) Administration period 7 days [2, 3]: 19.8 ± 1.4
(Average body weight ± standard deviation) Administration period 36 days [2, 3]: 22.6 ± 0.8
Death rate ([2]; Exp. 1, 5 mg/kg orally every day, three times a day, non-infected mice): 0/5
Death rate ([2]; Exp. 2, 10 mg/kg orally every day, three times a day, non-infected mice): 0/5
deaths of mice ([2]; even at the maximum concentration of 10 mg/kg, after the lapse of time of 25 days): none of the five mice died
(Average body weight ± standard deviation) Administration period 7 days ([2]; mouse, in vivo, po, 5 mg/kg): 19.9 ± 1.4
(Average body weight ± standard deviation) Administration period 36 days ([2]; mouse, in vivo, po, 5 mg/kg): 21.0 ± 0.8
(Average body weight ± standard deviation) Administration period 7 days ([2]; mouse, in vivo, po, 10 mg/kg): 20.1 ± 1.2
(Average body weight ± standard deviation) Administration period 21 days ([2]; mouse, in vivo, po, 10 mg/kg): 20.4 ± 1.0
effect to inhibit virus DNA synthesis (HSV-1): not found
cytotoxicity (Vero cells): not observed

Source: EP0878193A1, “REMEDIES FOR HERPESVIRUS INFECTION CAUSED BY HERPESVIRUS AND PREVENTIVES FOR RECURRENCE OF THE INFECTION BOTH CONTAINING TRITERPENE DERIVATIVES AS THE ACTIVE INGREDIENT” (Showa Shell Sekiyu K.K., priority 1996, dated 1997)
